Test results: US6737383B1, “Herbicidal oxadiazolidines” (priority 1999, dated 2004)

Columns and labels:
[1] = test system: corn; test: Test B pre/postemergence corn; format: in vivo, Zea mays
Method in brief: (§1)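 Response is a visual 0-to-10 score relative to untreated plants, where 0 means no effect and 10 means complete control, taken twelve to sixteen days after application. Treatments went onto soil at planting and onto foliage of 1- to 4-leaf plants, using a surfactant-containing non-phytotoxic solvent.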

[2] = test system: surinam grass; test: Test B pre/postemergence surinam grass; format: in vivo, Brachiaria decumbens
Method in brief: as §1

[3] = test system: morningglory; test: Test B pre/postemergence morningglory; format: in vivo, Ipomoea hederacea
Method in brief: as §1

[4] = test system: rice; test: Test B flood test rice; format: in vivo, Oryza sativa
Method in brief: (§2)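 Flood test on plants grown to the 2-leaf stage; treated plants kept in greenhouse twelve to sixteen days, then visually rated against controls on a 0 (no effect) to 10 (complete control) scale.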

[5] = test system: cocklebur; test: Test B pre/postemergence cocklebur; format: in vivo, Xanthium strumarium
Method in brief: as §1

[6] = test system: bamyardgrass; test: Test B flood test barnyardgrass; format: in vivo, Echinochloa crus-galli
Method in brief: as §2

[7] = test system: rape; test: Test B pre/postemergence rape; format: in vivo, Brassica napus
Method in brief: as §1

[8] = test system: wild oat; test: Test B pre/postemergence wild oat; format: in vivo, Avena fatua
Method in brief: as §1

[9] = test system: smallflower flatsedge; test: Test B flood test smallflower flatsedge; format: in vivo, Cyperus difformis
Method in brief: as §2

[10] = test system: pigweed; test: Test B pre/postemergence pigweed; format: in vivo, Amaranthus retroflexus
Method in brief: as §1

[11] = test system: bedstraw; test: Test B pre/postemergence bedstraw; format: in vivo, Galium aparine
Method in brief: as §1

[12] = test system: crabgrass; test: Test B pre/postemergence crabgrass; format: in vivo, Digitaria sanguinalis
Method in brief: as §1

[13] = test system: sugar beet; test: Test B pre/postemergence sugar beet; format: in vivo, Beta vulgaris
Method in brief: as §1

[14] = test system: blackgrass; test: Test B pre/postemergence blackgrass; format: in vivo, Alopecurus myosuroides
Method in brief: as §1

[15] = test system: giant foxtail; test: Test B pre/postemergence giant foxtail; format: in vivo, Setaria faberii
Method in brief: as §1

[16] = test system: velvetleaf; test: Test B pre/postemergence velvetleaf; format: in vivo, Abutilon theophrasti
Method in brief: as §1

[17] = Postemergence, Rate 62 g/ha, scale of 0 to 10, 0 is no effect, 10 is complete control
[18] = Postemergence, Rate 125 g/ha, scale 0 to 10, 0 is no effect, 10 is complete control
[19] = Postemergence, Rate 500 g/ha, scale of 0 to 10 where 0 is no effect and 10 is complete control
[20] = Preemergence, Rate 62 g/ha, scale 0 to 10 (0 no effect, 10 complete control)
[21] = Preemergence, Rate 125 g/ha, scale 0 to 10, 0 is no effect, 10 is complete control
[22] = Preemergence, Rate 500 g/ha, scale of 0 to 10 where 0 is no effect and 10 is complete control
[23] = Rate 250 g/ha, Postemergence, scale of 0 to 10 where 0 is no effect and 10 is complete control
[24] = Rate 62 g/ha, flood test species, Pre-emergence, visual evaluation after twelve to sixteen days
[25] = Rate 125 g/ha, under heading Pre-emergence, flood test species, visual evaluation after twelve to sixteen days
[26] = Rate 250 g/ha, Pre-emergence (flood test species), scale 0 to 10, 0 is no effect, 10 is complete control
[27] = Rate 500 g/ha, Pre-emergence section of Table B, 0 to 10 scale (0 no effect, 10 complete control)

CCCCn1c(=O)on(C(=O)N(c2ccccc2)C(C)C)c1=O [Compound 556]
4: Plant response rating, B. signalgrass [2, 23] | Plant response rating, Morningglory [3, 23] | Wild oats plant response rating (0 to 10 scale) ([8]; Preemergence, Rate 250 g/ha) | Plant response rating, Redroot pigweed [10, 19] | Giant foxtail plant response rating [15, 17]
10: Plant response rating, Morningglory [3, 19] | Crabgrass plant response rating [12, 22] | Blackgrass plant response rating (0 to 10 scale) ([14]; Preemergence, Rate 250 g/ha) | Blackgrass plant response rating [14, 22] | Giant foxtail plant response rating (0 to 10 scale) ([15]; Preemergence, Rate 250 g/ha) | Giant foxtail plant response rating [15, 22]
9: B. signalgrass plant response rating [2, 22] | Crabgrass plant response rating [12, 20] | Crabgrass plant response rating [12, 21] | Crabgrass plant response rating (0 to 10 scale) ([12]; Preemergence, Rate 250 g/ha) | Blackgrass plant response rating [14, 21] | Plant response rating, Giant foxtail [15, 19] | Giant foxtail plant response rating [15, 20] | Giant foxtail plant response rating [15, 21] | Plant response rating, Giant foxtail [15, 23]
6: B. signalgrass plant response rating [2, 20] | Wild oats plant response rating [8, 22] | Plant response rating, Blackgrass [14, 19] | Blackgrass plant response rating [14, 20]
2: B. signalgrass plant response rating [2, 18] | Morningglory plant response rating [3, 18] | Plant response rating, Rape [7, 19] | Wild oats plant response rating [8, 17] | Plant response rating, Wild oats [8, 19] | Plant response rating, Wild oats [8, 23] | Crabgrass plant response rating [12, 18] | Plant response rating, Crabgrass [12, 19] | Plant response rating, Crabgrass [12, 23] | Plant response rating, Velvetleaf [16, 19] | Velvetleaf plant response rating [16, 21]
0: Corn plant response rating [1, 17] | Corn plant response rating [1, 18] | Plant response rating, Corn [1, 19] | Corn plant response rating [1, 20] | Corn plant response rating [1, 21] | Corn plant response rating (0 to 10 scale) ([1]; Preemergence, Rate 250 g/ha) | Corn plant response rating [1, 22] | Plant response rating, Corn [1, 23] | B. signalgrass plant response rating [2, 17] | Morningglory plant response rating [3, 17] | Morningglory plant response rating [3, 20] | Morningglory plant response rating [3, 21] | Morningglory plant response rating (0 to 10 scale) ([3]; Preemergence, Rate 250 g/ha) | Morningglory plant response rating [3, 22] | Plant response rating, Rice (0 to 10 scale, 0 is no effect, 10 is complete control) [4, 24] | Rice plant response rating (0 to 10 scale, 0 is no effect, 10 is complete control) [4, 25] | Rice plant response rating [4, 26] | Rice plant response rating [4, 27] | Cocklebur plant response rating [5, 17] | Cocklebur plant response rating [5, 18] | Plant response rating, Cocklebur [5, 19] | Cocklebur plant response rating [5, 20] | Cocklebur plant response rating [5, 21] | Cocklebur plant response rating (0 to 10 scale) ([5]; Preemergence, Rate 250 g/ha) | Cocklebur plant response rating [5, 22] | Plant response rating, Cocklebur [5, 23] | Plant response rating, Barnyardgrass (0 to 10 scale, 0 is no effect, 10 is complete control) [6, 24] | Barnyardgrass plant response rating (0 to 10 scale, 0 is no effect, 10 is complete control) [6, 25] | Barnyardgrass plant response rating [6, 26] | Rape plant response rating [7, 17] | Rape plant response rating [7, 18] | Rape plant response rating [7, 20] | Plant response rating, Rape [7, 23] | Wild oats plant response rating [8, 20] | Wild oats plant response rating [8, 21] | Plant response rating, S. Flatsedge (0 to 10 scale, 0 is no effect, 10 is complete control) [9, 24] | S. Flatsedge plant response rating (0 to 10 scale, 0 is no effect, 10 is complete control) [9, 25] | S. Flatsedge plant response rating [9, 26] | S. Flatsedge plant response rating [9, 27] | Redroot pigweed plant response rating [10, 20] | Bedstraw plant response rating [11, 17] | Bedstraw plant response rating [11, 18] | Plant response rating, Bedstraw [11, 19] | Bedstraw plant response rating [11, 20] | Bedstraw plant response rating [11, 21] | Bedstraw plant response rating (0 to 10 scale) ([11]; Preemergence, Rate 250 g/ha) | Bedstraw plant response rating [11, 22] | Plant response rating, Bedstraw [11, 23] | Crabgrass plant response rating [12, 17] | Sugarbeets plant response rating [13, 17] | Plant response rating, Sugarbeets [13, 19] | Sugarbeets plant response rating [13, 20] | Sugarbeets plant response rating [13, 21] | Sugarbeets plant response rating (0 to 10 scale) ([13]; Preemergence, Rate 250 g/ha) | Sugarbeets plant response rating [13, 22] | Plant response rating, Sugarbeets [13, 23] | Blackgrass plant response rating [14, 17] | Velvetleaf plant response rating [16, 17] | Velvetleaf plant response rating [16, 20] | Plant response rating, Velvetleaf [16, 23]
3: Rape plant response rating [7, 21] | Rape plant response rating (0 to 10 scale) ([7]; Preemergence, Rate 250 g/ha) | Redroot pigweed plant response rating [10, 17] | Plant response rating, Redroot pigweed [10, 23] | Blackgrass plant response rating [14, 18] | Plant response rating, Blackgrass [14, 23] | Velvetleaf plant response rating (0 to 10 scale) ([16]; Preemergence, Rate 250 g/ha) | Velvetleaf plant response rating [16, 22]
5: Redroot pigweed plant response rating [10, 21] | Redroot pigweed plant response rating (0 to 10 scale) ([10]; Preemergence, Rate 250 g/ha) | Redroot pigweed plant response rating [10, 22]
7: Plant response rating, B. signalgrass [2, 19] | B. signalgrass plant response rating [2, 21] | B. signalgrass plant response rating (0 to 10 scale, 0 is no effect, 10 is complete control) ([2]; Preemergence, Rate 250 g/ha) | Giant foxtail plant response rating [15, 18]
8: Rape plant response rating [7, 22]
1: Barnyardgrass plant response rating [6, 27]
